Read-outs that look alike come from different tables or passages of the source.
How the values were obtained:
[1] = Phase 1 absorption, metabolism and excretion study of [14C]-ecopipam, single oral capsule dose; type: in vivo, human; details: in vivo, po
Source text: Healthy subjects of any ethnic origin, aged between 35 and 55 years, inclusive, with a body mass index between 18.0 and 30.0 kg/m^2, inclusive, were selected for the study.

[2] = minipig, in vivo
Source text: The minipigs were 4-5 months old with a weight range within 10-15 kg at dosing. 3 male animals were used.
The concentration-time data were normalized for differences in dose.

^3H-23390 binding site = ^3H-23390 binding site (Homo sapiens, UniProt P21728); details: read-out: Ki ^3H-23390; cited from earlier work
^3H-Spip binding site = ^3H-Spip binding site (Homo sapiens, UniProt P14416); details: read-out: Ki ^3H-Spip; cited from earlier work
Chain of ^3H-Spip binding site (P14416 whole entry): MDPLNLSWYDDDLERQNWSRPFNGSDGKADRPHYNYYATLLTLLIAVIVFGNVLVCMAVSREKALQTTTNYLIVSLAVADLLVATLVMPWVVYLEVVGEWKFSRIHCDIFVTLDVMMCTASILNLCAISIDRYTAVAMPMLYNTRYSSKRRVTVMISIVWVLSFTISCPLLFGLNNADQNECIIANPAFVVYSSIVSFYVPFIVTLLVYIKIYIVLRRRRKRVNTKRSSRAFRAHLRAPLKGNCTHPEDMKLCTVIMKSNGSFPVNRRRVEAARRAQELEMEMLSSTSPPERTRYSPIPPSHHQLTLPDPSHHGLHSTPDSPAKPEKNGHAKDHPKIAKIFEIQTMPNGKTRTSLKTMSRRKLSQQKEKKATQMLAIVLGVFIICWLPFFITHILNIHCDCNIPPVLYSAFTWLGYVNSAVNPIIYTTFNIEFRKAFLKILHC

[3] = cited from earlier work

Chain of ^3H-23390 binding site (P21728 whole entry): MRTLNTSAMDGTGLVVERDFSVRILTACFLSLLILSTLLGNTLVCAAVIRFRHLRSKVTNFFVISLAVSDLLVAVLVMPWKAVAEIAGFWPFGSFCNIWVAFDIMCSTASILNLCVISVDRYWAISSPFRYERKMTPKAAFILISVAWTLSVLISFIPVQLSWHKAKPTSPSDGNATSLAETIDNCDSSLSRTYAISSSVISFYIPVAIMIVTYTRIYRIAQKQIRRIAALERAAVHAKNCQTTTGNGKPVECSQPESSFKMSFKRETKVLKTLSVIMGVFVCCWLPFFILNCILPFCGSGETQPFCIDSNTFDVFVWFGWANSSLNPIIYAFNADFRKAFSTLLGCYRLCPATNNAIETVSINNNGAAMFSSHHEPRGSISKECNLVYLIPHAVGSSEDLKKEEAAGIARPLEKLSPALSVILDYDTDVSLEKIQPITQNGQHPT

Compound | Ki (^3H-23390 binding site) [nM] | Ki (^3H-Spip binding site) [nM] | CAR (MED) ([3]; po) | also measured
Oc1cc2c(cc1Cl)CCNC1CCc3ccccc3C21 (stereo in doubt) [EBS-101-40853] |  |  |  | Geometric mean AUC ratio of plasma analyte to plasma total radioactivity ([1]; human, 200 mg): 0.00178; Percentage of dose excreted in urine as analyte (geometric mean) [1]: 0.0645%; Share of radioactivity in plasma [1]: 0.26%; Geometric mean apparent terminal elimination half-life (t½) of analyte ([1]; 200 mg): 25.6 h; Geometric mean renal clearance ([1]; 200 mg): 1.53 L/h; Reduction of first pass metabolite concentration vs oral dosage form for oral systemic administration [2]: 48-55%
CN1CCc2cc(Cl)c(O)cc2C2c3ccccc3CC21 (stereo not drawn) [CH2/0/trans/Cl/OH] | 10 | 2600 |  | 
CN1CCc2cc(Cl)c(O)cc2[C@H]2c3ccccc3CC[C@@H]21 [CH2/1/7b(R):7a(S)(−)/Cl/OH] |  |  | 30 (po) | 
CN1CCc2cc(Cl)c(O)cc2[C@@H]2c3ccccc3CC[C@H]21 [CH2/1/7b(S):7a(R)(+)/Cl/OH] |  |  | >30 (po) | 
COc1cc2c(cc1O)C1c3ccccc3CCC1N(C)CC2 (stereo not drawn) [CH2/1/cis/CH3O/OH] | 6450 | > 100000 |  | 
Cc1cc2c(cc1O)C1c3ccccc3CCC1N(C)CC2 (stereo not drawn) [CH2/1/trans/CH3/OH] | 119 | 7200 |  | 
COc1cc2c(cc1O)C1c3ccccc3CCC1N(C)CC2 (stereo not drawn) [CH2/1/trans/CH3O/OH] | 23 | 2500 | 30 (po); | CAR (MED) ([3]; sc): 0.3-1 (sc)
CN1CCc2cc(Cl)c(N)cc2C2c3ccccc3CCC21 (stereo not drawn) [CH2/1/trans/Cl/NH2] | 70 | 4180 | 3 (po) | 
